{
  "source": "patent US8268961B2",
  "about": "“Antibacterial peptides and analogues thereof” (Universita Degli Studi di Siena, priority 2004, dated 2012)",
  "key": {"[1]": {"test_system": "Pichia pastoris yeast strain X33", "assay": "Effect on Pichia pastoris yeast colonies", "format": "cell-based", "experimental": "To a volume of 50 μl of culture of Pichia pastoris grown 24 hour at 30° C. in YPD (Yeast Extract/Peptone/Dextrose) medium, 50 μl of MAP peptides (2 mg/ml) were added and left in incubation 150 min at 37° C. Subsequently, 50 μl of each incubation were plated on YPD solid medium and it was allowed to grow for 48 hours at 30° C. The number of colonies grown was compared with a control, where the yeast was not treated with the MAP."}, "[2]": {"assay": "Stability to plasmatic protease (HPLC)", "format": "in vitro ADME, human", "experimental": "Since the use of peptides as therapeutic agents is severely limited by their in vivo half-life, the stability to human serum protease of the linear peptide L1 and of the MAP peptides M1, M4, M5 and M6 was evaluated. The peptides were incubated at the concentration of 10 mM with plasma and with human serum for 2 and 24 hours; the samples were subsequently analysed in HPLC on column C18 (see materials and methods) to evaluate the presence of linear and MAP peptide not digested by the protease.\nThe various peptides in MAP form and the linear peptide (L1) were dissolved in H2O at the concentration of 10 mM and incubated with 10 μl of plasma and human serum for 2 and 24 hours at 37° C. To each sample were added 150 μl of methanol to block the proteolytic reaction; each sample was then centrifuged at 13,000 rpm for 2 min and to the supernatant were added 0.75 ml of 0.1% trifluoroacetic acid. The samples were analysed in reverse phase HPLC on a Vydac C18 semi-preparative column using a 30 min gradient of buffer B from 20% to 95% (buffer A: 0.1% trifluoroacetic acid/water; buffer B: 0.1% trifluoroacetic acid/methanol), to evaluate the presence of linear and MAP peptide after the proteolytic treatment."}, "E. coli strain TG1": {"test_system": "E. coli strain TG1", "assay": "Test of antibacterial activity (colony growth inhibition) on E. coli strain TG1", "format": "cell-based", "experimental": "The antimicrobic activity of the peptides in linear form (L1, L4, L5, L6) and in MAP form (M1, M4, M5, M6) was assayed on the TG1 strain of E. coli. The peptides were incubated at various concentrations (2-1-0.5-0.25-0.12 mg/ml) with cells of E. coli (OD600=0.2) for about 1 hour at 37° C. Subsequently, the cells were plated on agar at dilution such to allow counting of individual colonies. The antimicrobic activity of the synthesised peptide L 1 and M1 is shown FIG. 1 and is compared to a non correlated MAP peptide (MNC) used as negative control.\nIn one example, the tetrabranched MAP peptides with the amino acid sequence: QAKIRVRLSA [SEQ ID NO: 2], KIRVRLSA [SEQ ID NO: 3], QKKIRVRLSA [SEQ ID NO: 4] are used individually in a bacterial colony growth inhibition test. The test is conducted by incubating different concentrations of MAP peptides with E. coli (strain TG1) and plating bacterial cells on agar at a dilution such to allow for individual colonies counting. The following day, the number of colonies grown after treatment with the three MAP peptides is compared.\nAntimicrobic tests were conducted incubating for 75 min at 37° C., 25 μL of E. coli at the OD600 of 0.2 with 25 μl of MAP peptide dissolved in PBS at the various concentrations. The different incubations were further diluted 1:1000 in 2×TY medium and 100 μl were plated on solid 2×TY medium. The plates were left overnight at 30° C. and the individual grown colonies were counted and compared with a control, not treated with MAP peptide."}, "P. aeruginosa ATCC 27853": {"test_system": "P. aeruginosa ATCC 27853", "assay": "Minimal bactericidal concentration (MBC)", "format": "cell-based", "experimental": "(§1) Reference strains (Escherichia coli ATCC 25922, Pseudomonas aeruginosa ATCC 27853, Staphylococus aureus ATCC 25923 and Chryseobacterium meningosepticum CCUG 4310) and several recent clinical isolates (including multidrug-resistant ones) of various species (Table 2) were used for conventional susceptibility testing experiments. Minimum Inhibitory Concentration (MIC) was determined by a standard microdilution assay as recommended by the National Commitee for Clinical Laboratory Standards (NCCLS) using cation-supplemented Mueller-Hinton (MH) broth (Oxoid Ltd. Basingstoke, UK) and a bacterial inoculum of 5×10^4 CFU per well, in a final volume of 100 μl. Results were recorded by visual inspection after 24 h of incubation at 37° C.\n(§2) The MBC was determined as recommended by the National Committee for Clinical Laboratory Standards (NCCLS) on strains of E. coli ATCC 25922 and P. aeruginosa ATCC 27853."}, "E. coli ATCC 25922": {"test_system": "E. coli ATCC 25922", "assay": "Minimal bactericidal concentration (MBC)", "format": "cell-based", "experimental": "as §1, §2"}, "[3]": {"test_system": "Staphylococus aureus MIU-68A", "format": "cell-based, Staphylococcus aureus", "conditions": "Staphylococus aureus MIU-68A, meticillin-susceptible", "from_the_text": "(§3) MIC is defined as the lowest concentration, in an antibiotic dilution range, that inhibits visible bacterial growth. The importance of MIC sensitivity test is based on the principle that in vitro sensitivity provides a predictive indication of the in vivo efficacy of the antibiotic therapy. Values are expressed as molar concentration and compared to MIC values obtained with commercially available antibiotics such as amikacin, ceftriaxone and levofloxacin (Table 3).\nas §1"}, "[4]": {"test_system": "murine macrophage cells J774 A.1", "assay": "Cytotoxicity test by MTT", "format": "cell-based, mouse", "experimental": "The cytotoxicity of antibacterial MAP peptides was evaluated on different eukaryotic cell lines by a colorimetric assay (MTT). This assay measures the cells' ability to convert a soluble tetrazolium salt into an insoluble precipitate: formazan. The cytotoxicity of M1 was evaluated on murine macrophagic cells (J774 A.1), murine myeloma cells (SPO) and Chinese hamster ovary epithelium cells (CHO K1). As shown FIG. 4, even at high concentrations (1 mg/ml) M1 cytotoxicity on CHO K1 cells and on SPO cells is low (percent survival is 80-90%).\nFor cytotoxicity tests, different cell lines were used: murine myeloma cells SPO, hamster ovary epithelium cells CHO K 1, murine macrophage cells J774 A.1 and human keratinocytes HaCaT. The cells were plated in medium in RPMI 1640 (SPO and CHO K 1) and DMEM (J774 A.1 and HaCaT) with antibiotics and bovine foetal serum at 10%, in 96-well plates at the concentration of 6×10^4 (SPO, CHO K1 and J774 A.1) and 3×10^4 (HaCaT). Peptides, previously filtered with a 0.2 μm filter disk (Whatman), were added at various concentrations to the different cell lines and left in incubation over night at 37° C. Cell viability was determined adding the MTT tetrazolium salt at the concentration of 0.5 mg/ml and incubating for 90 min. The cells were solubilised with a solution at pH 4.5 containing SDS 10% and dimethylformamide 45% and read at the dual wavelength of 595/650 nm with a plate reader."}, "[5]": {"test_system": "Staphylococcus aureus ATCC 25923", "format": "cell-based", "from_the_text": "as §3, §1"}, "[6]": {"test_system": "Pseudomonas aeruginosa ATCC27853", "format": "cell-based", "conditions": "ATCC27853", "from_the_text": "as §3, §1"}, "[7]": {"test_system": "Pseudomonas aeruginosa 885149", "format": "cell-based", "conditions": "885149", "from_the_text": "as §3, §1"}, "[8]": {"test_system": "Pseudomonas aeruginosa 891", "format": "cell-based", "conditions": "891", "from_the_text": "as §3, §1"}, "[9]": {"test_system": "Klebsiella pneumoniae W99FI0057", "format": "cell-based", "conditions": "W99FI0057", "from_the_text": "as §3, §1"}, "[10]": {"test_system": "Escherichia coli W99FI0077", "format": "cell-based", "conditions": "W99FI0077", "from_the_text": "as §3, §1"}},
  "note": "Read-outs that look alike come from different tables or passages of the source. Positions of bridges follow the written chain, without caps; N, C: chain ends. Chains are numbered I, II in the order given. No end group written: not given here.",
  "data": [
    {"substance": "I: QAKIRVRLSAKKA-OH / II: QAKIRVRLSAK / III: QAKIRVRLSA / IV: QAKIRVRLSA (amide I:11-IV:C, I:12-II:C, II:11-III:C) [M4]", "values": [
      {"measurement": "Number of yeast colonies vs negative control", "setting": "[1]", "value": "did not differ from the negative control"},
      {"measurement": "Resistance to plasmatic protease: Plasma 2 h", "setting": "[2]", "value": "+"},
      {"measurement": "Resistance to plasmatic protease: Plasma 24 h", "setting": "[2]", "value": "+"},
      {"measurement": "Concentration down to which TG1 E. coli colony growth is prevented", "setting": "E. coli strain TG1; E. coli TG1, MAP form", "value": "less effective"},
      {"measurement": "Antibacterial activity on E. coli TG1 colony growth", "setting": "E. coli strain TG1; E. coli TG1, colony counting vs control without peptide", "value": "good antibacterial activity"},
      {"measurement": "MBC (minimal concentration able to kill 99.9% of the inoculum) compared with MIC", "setting": "P. aeruginosa ATCC 27853", "value": "equal to the calculated values of MIC"},
      {"measurement": "MBC (minimal concentration able to kill 99.9% of the inoculum) compared with MIC", "setting": "P. aeruginosa ATCC 27853; listed as QAKIRVRLSA", "value": "equal to the corresponding MIC values"},
      {"measurement": "MBC (minimal concentration able to kill 99.9% of the inoculum) compared with MIC", "setting": "E. coli ATCC 25922", "value": "equal to the calculated values of MIC"},
      {"measurement": "MBC (minimal concentration able to kill 99.9% of the inoculum) compared with MIC", "setting": "E. coli ATCC 25922; listed as QAKIRVRLSA", "value": "equal to the corresponding MIC values"},
      {"measurement": "MIC (Molarity)", "setting": "[3]", "value": ">26", "unit": "µM"},
      {"measurement": "Concentration at and over which a drop in cell viability was evident (MTT)", "setting": "[4]", "value": "≥ 250", "unit": "µg/mL"},
      {"measurement": "Vitality of J774 A.1 cells as the concentration of MAP peptides increases (MTT)", "setting": "[4]", "value": "decreases"},
      {"measurement": "MIC (Molarity)", "setting": "[5]; ATCC 25923", "value": "1.3e-05", "unit": "M"},
      {"measurement": "MIC (Molarity)", "setting": "[5]; Staphylococcus aureus ATCC 25923, reference strain, listed as M32 = M4", "value": ">1.2e-05", "unit": "M"},
      {"measurement": "MIC (Molarity)", "setting": "[5]; Staphylococcus aureus ATCC 25923, reference strain, listed as QAKIRVRLSA", "value": "~10^−5 M"},
      {"measurement": "MIC (Molarity)", "setting": "[6]", "value": 6.4, "unit": "µM"},
      {"measurement": "MIC (Molarity)", "setting": "[7]", "value": 13, "unit": "µM"},
      {"measurement": "MIC (Molarity)", "setting": "[8]", "value": 13, "unit": "µM"},
      {"measurement": "MIC (Molarity)", "setting": "[9]", "value": 13, "unit": "µM"},
      {"measurement": "MIC (Molarity)", "setting": "[10]", "value": 3.2, "unit": "µM"}
    ]}
  ]
}
